Laboratory results as given in patent publication US5594030A, “Controlled release pharmaceutical compositions based on one or more pharmaceutically acceptable salts of gamma hydroxy-butyric acid” (Laboratorio Farmaceutico C.T. S.r.l., priority 1993, dated 1997).
Counter-ions that a name gives are not always drawn. Like-named read-outs stand apart in the source and are kept apart here.

Key:
[1] = cited from earlier work
[2] = tested on: enzymes having the --SH group; details: result in words; cited from earlier work
[3] = fraction of unbound drug (dialysis); assay type: in vitro ADME; details: predialysis concentration of 25 μg/ml; read-out: fu (fraction of unbound drug)
Description: ^c determined at a predialysis concentration of 25 μg/ml
peak, tmax absorption time to the peak, fu fraction of unbound

[4] = GHB average pharmacokinetic parameters after oral administration of different doses (immediate release) to 8 healthy volunteers; assay type: in vivo, human (healthy volunteers); details: for Tmax / CL/F / MRT / half-life: human, plasma; for CL/F: read-out: CLo (oral clearance); for MRT: read-out: MRT (average residence time) (converted); for AUC: average (SD); for absorption: result in words, immediate release / aqueous liquid solutions
Description: GHB Average pharmacokinetic parameters after
administration of different doses to 8 healthy volunteers

[5] = In vitro dissolution test (paddle test); assay type: physicochemical; details: aqueous liquid solutions / formulations on the market; instantaneous
Description: The evaluation test in vitro is carried out with a dissolution test consistent with the apparatus described in the European Pharmacopoeia 2° ed. or UPS XXII ed. ("paddle test"). The dosage, evaluated in the time after 1, 2, 3, 4, 6 and 8 hours, is carried out with 1N hydrochloric acid, taking a known amount from the dissolution medium.
medium: distilled H20 900 ml.
Data obtained are the following (expressed as GHBNa percentage with respect to the total tablet content): […]

[6] = oral 25 mg/kg, normalized at 12.5 mg/kg
[7] = oral 50 mg/kg, normalized at 12.5 mg/kg

Structure (SMILES): CCN(CC)C(=S)SSC(=S)N(CC)CC [Disulfiram]
- toxicity ([1]; Disulfiram by itself, therapeutical doses): scarcely toxic
- blood acetaldehyde concentration vs alcohol dose alone ([1]; alcohol administered after Disulfiram pretreatment): five to ten times higher
- severe events occurred ([1]; as a consequence of Disulfiram treatment): depression, myocardial infarction, sudden and unexplained fatalities
- side effects (may cause) ([1]; in vivo): acneiform eruptions, allergic dermatitis, urticaria, lassitude, fatigue, tremor, restlessnes, reduced sexual potency, gastric or digestive disturbances
- enzyme inhibition [2]: alters the activity of all enzymes having the --SH group

Structure (SMILES): O=C(O)CCCO [GHB, gamma hydroxy butyric acid]
- fraction unbound [3]: 0.99
- Tmax ([4]; oral 12.5 mg/kg, average value (range), read-out: tmax (absorption time to the peak) (converted)): 25 min
- CL/F ([4]; oral 12.5 mg/kg): 14 mL/min/kg
- MRT ([4]; oral 12.5 mg/kg): 45 min
- half-life ([4]; oral 12.5 mg/kg, read-out: t^1/2 z (final halflife time)): 20 min
- Tmax ([4]; oral 25 mg/kg, average value (range), read-out: tmax (absorption time to the peak) (converted)): 30 min
- CL/F ([4]; oral 25 mg/kg): 9 mL/min/kg
- MRT ([4]; oral 25 mg/kg): 53 min
- half-life ([4]; oral 25 mg/kg, read-out: t^1/2 z (final halflife time)): 22 min
- Tmax ([4]; oral 50 mg/kg, average value (range), read-out: tmax (absorption time to the peak) (converted)): 45 min
- CL/F ([4]; oral 50 mg/kg): 7 mL/min/kg
- MRT ([4]; oral 50 mg/kg): 70 min
- half-life ([4]; oral 50 mg/kg, read-out: t^1/2 z (final halflife time)): 23 min
- Cmax ([4]; oral 12.5 mg/kg): 23 (9) μg/ml
- AUC ([4]; oral 12.5 mg/kg, 8 healthy volunteers): 905 (443) μg/ml min
- Cmax [4, 6]: 23 (11) μg/ml
- AUC [4, 6]: 1271 (560) μg/ml min
- Cmax [4, 7]: 20 (7) μg/ml
- AUC [4, 7]: 1565 (548) μg/ml min

Structure (SMILES): O=C(O)CCCO [GHBNa, sodium salt of gamma hydroxy butyric acid]
- Tmax ([4]; po, about, summary of table 1 and FIG. 1, read-out: maximum peak after the administration): 30 to 45 min
- half-life ([4]; po, summary of table 1 and FIG. 1, read-out: half life): 20 to 25 min
- absorption [4]: rapidly absorbed
- absorption ([4]; listed as sodium gamma hydroxy butyrate): absorbed quickly
- elimination time ([4]; summary of table 1 and FIG. 1): 4 to 5 h
- release of the active substance [5]: 100%
